The values that follow are results of earlier work, collected in PMC10975502 (Methods in molecular biology (Clifton, N.J.), 2022).

For this series the following is noted: result in words.

With cyclo(FfΦRrRrQ) [CPP12], the “activity in cytosolic delivery” value is on record as “high activity”.
